Tests used:
human A2A AdoR = target: T1, human A2A AdoR (Homo sapiens, UniProt P29274); test: Adenosine receptor binding assay, A2A ([3H]-CGS-21680); conditions: membranes of HEK-293 cells expressing human A2A AdoR; read-out: hA2A IC50
T1 construct: purchased PerkinElmer RBHA2AM400UA
Protocol: (§1) Membranes prepared from CHO-K1 cells stably expressing Human AiAdoR (ES-010-M400UA), HEK-293 cells stably expressing human A2A AdoR (RBHA2AM400UA), HEK-293 cells stably expressing human A2B AdoR (ES-013-M400UA) and CHO-K1 cells stably expressing Human A3 AdoR (ES-012-M400UA) were purchased from PerkinElmer (Waltham, Mass., USA) and stored at −80° C. until use. Binding assays are performed using the radioligands. The final concentrations are as follows: [3H]-DPCPX (PerkinElmer, NET974001MC) at 1 nM for A1AdoR; [^3H]-CGS-21680 (PerkinElmer, NET1021250UC) at 6 nM for A2AAdoR, [3H]-DPCPX (PerkinElmer, NET974001MC) at 8 nM for A2BAdoR; [^3H]-HEMADO (ARC, Cat: ART1456) at 1 nM for A3AdoR. Testing compounds are diluted with DMSO to make 8-point 4-fold serial dilution. Nonspecific binding (Low control: LC) and total binding (High control: HC) are determined in the presence or absence of saturated cold ligand. Specific binding is calculated by subtracting nonspecific binding from total binding. All assays are performed in a final volume of 200 μl containing 1 μl of the test compound in DMSO, 100 μl of membrane preparation, and 99 μl of the radioligand in assay buffer (A1AdoR: 25 mM HEPES pH 7.4, 5 mM MgCl2, 1 mM CaCl2), 100 mM NaCl; A2AAdoR: 50 mM Tris HCl pH 7.4, 10 mM MgCl2, 1 mM EDTA; A2BAdoR: 50 mM HEPES pH 7.0, 5 mM MgCl2, 1 mM EDTA; A3AdoR: 25 HEPES pH 7.4, 10 mM MgCl2, 1 mM CaCl2), 0.5% BSA). The incubation is performed at room temperature with shaking at 300 rpm for 1 hour for A1AdoR, A2BAdoR and A3AdoR and 2 hours for A2AAdoR. After the incubation, the assay mixture is filtered through 96 GF/C filter plates (Perkin Elmer #6005174) using Perkin Elmer Filtermate Harvester, and then washed four times with ice-cold washing buffer (A1AdoR: 25 mM HEPES pH 7.4, 5 mM MgCl2, 1 mM CaCl2), 100 mM NaCl; A2AAdoR: 50 mM Tris HCl pH 7.4, 154 mM NaCl; A2BAdoR: 50 mM HEPES pH 6.5, 5 mM MgCl2, 1 mM EDTA, 0.2% BSA; A3AdoR: 50 mM Tris HCl pH 7.4). The filters are dried for 1 hour at 50° C. and [^3H] trapped on filter counted for radioactivity in Perkin Elmer Microscint 20 cocktail (#6013329) using Perkin Elmer MicroBeta2 Reader. The results are expressed as a percent inhibition of the control radioligand specific binding calculated using the following equation: % Inhibition=(1−(Assay well-Average_LC)/(Average_HC−Average_LC))×100%. Data are analyzed and IC50 is calculated using GraphPad Prism 5 and the model “log(inhibitor) vs. response—Variable slope”. The binding affinity of the compounds is determined by using the Cheng and Prusoff equation Ki=IC50/(1+[radioligand]/Kd).

A1AdoR = target: T2, A1AdoR (Homo sapiens, UniProt P30542); test: Adenosine receptor binding assay, A1 ([3H]-DPCPX); conditions: ratio A1 vs A2A binding
T2 construct: purchased PerkinElmer ES-010-M400UA
T2 sequence (P30542 1-326): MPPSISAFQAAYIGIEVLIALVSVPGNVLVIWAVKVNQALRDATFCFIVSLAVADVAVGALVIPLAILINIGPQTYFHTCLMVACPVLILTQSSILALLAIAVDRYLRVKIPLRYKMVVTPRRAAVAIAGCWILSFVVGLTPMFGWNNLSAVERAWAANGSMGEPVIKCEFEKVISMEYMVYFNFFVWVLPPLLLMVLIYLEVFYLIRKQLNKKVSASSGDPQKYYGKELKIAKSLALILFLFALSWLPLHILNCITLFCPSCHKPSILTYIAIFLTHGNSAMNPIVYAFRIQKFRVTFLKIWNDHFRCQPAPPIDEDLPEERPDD
Protocol: as §1

T1 sequence (P29274 whole entry): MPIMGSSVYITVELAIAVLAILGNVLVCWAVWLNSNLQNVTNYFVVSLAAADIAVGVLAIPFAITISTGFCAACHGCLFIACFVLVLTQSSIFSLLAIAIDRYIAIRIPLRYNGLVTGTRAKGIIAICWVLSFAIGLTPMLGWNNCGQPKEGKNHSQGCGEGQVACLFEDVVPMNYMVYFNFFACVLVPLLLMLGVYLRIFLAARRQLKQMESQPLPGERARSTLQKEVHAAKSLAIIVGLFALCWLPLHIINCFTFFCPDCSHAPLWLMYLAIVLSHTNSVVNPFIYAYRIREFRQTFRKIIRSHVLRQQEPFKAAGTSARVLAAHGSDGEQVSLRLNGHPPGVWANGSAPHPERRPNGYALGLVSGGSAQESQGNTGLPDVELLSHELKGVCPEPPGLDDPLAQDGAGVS

Molecule | IC50 (human A2A AdoR) [nM] | A1/A2A Selectivity (A1AdoR)
CC#Cc1nc2c3ncn(CCN4CCc5ncc(-c6nccs6)cc5C4)c3nc(N)n2n1 | ≤ 20 | c (greater than 0 but less than or equal to 100)
NC(=O)c1c(Cl)c2c(nc(N)n3nc(-c4ccccn4)nc23)n1CCN1CCN(c2ccncc2)CC1 [5-amino-9-chloro-2-(pyridin-2-yl)-7-(2-(4-(pyridin-4-yl)piperazin-1-yl)ethyl)-7H-pyrrolo[3,2-e][1,2,4]triazolo[1,5-c]pyrimidine-8-carboxamide] | ≤ 20 | c (greater than 0 but less than or equal to 100)
NC(=O)c1c(Cl)c2c(nc(N)n3nc(-c4ccccn4)nc23)n1CCN1CCN(c2ccc(OCC(=O)O)cc2)CC1 [2-(4-(4-(2-(5-amino-8-carbamoyl-9-chloro-2-(pyridin-2-yl)-7H-pyrrolo[3,2-e][1,2,4]triazolo[1,5-c]pyrimidin-7-yl)ethyl)piperazin-1-yl)phenoxy)acetic acid] | ≤ 20 | b (greater than 100 but less than or equal to 1000)
N#Cc1ccc(N2CCN(CCn3c(C(N)=O)c(Cl)c4c3nc(N)n3nc(-c5ccccn5)nc43)CC2)c(F)c1 [5-amino-9-chloro-7-(2-(4-(4-cyano-2-fluorophenyl)piperazin-1-yl)ethyl)-2-(pyridin-2-yl)-7H-pyrrolo[3,2-e][1,2,4]triazolo[1,5-c]pyrimidine-8-carboxamide] | ≤ 20 | a (greater than 1000)
Cc1cc(N2CCN(CCn3c(C(N)=O)c(C)c4c3nc(N)n3nc(-c5ccccn5)nc43)CC2)c(F)cn1 [5-amino-7-(2-(4-(5-fluoro-2-methylpyridin-4-yl)piperazin-1-yl)ethyl)-9-methyl-2-(pyridin-2-yl)-7H-pyrrolo[3,2-e][1,2,4]triazolo[1,5-c]pyrimidine-8-carboxamide] | ≤ 20 | c (greater than 0 but less than or equal to 100)
CC#Cc1nc2c3cc(C#N)n(CCN4CCN(c5ccc6onc(C)c6c5F)CC4)c3nc(N)n2n1 | ≤ 20 | a (greater than 1000)
NC(=O)c1c(Cl)c2c(nc(N)n3nc(-c4ccccn4)nc23)n1CCN1CCN(c2ncccn2)CC1 [5-amino-9-chloro-2-(pyridin-2-yl)-7-(2-(4-(pyrimidin-2-yl)piperazin-1-yl)ethyl)-7H-pyrrolo[3,2-e][1,2,4]triazolo[1,5-c]pyrimidine-8-carboxamide] | ≤ 20 | c (greater than 0 but less than or equal to 100)
Cc1c(C(N)=O)n(CCN2CCN(c3ccc(C#N)cc3F)CC2)c2nc(N)n3nc(-c4ccccn4)nc3c12 [5-amino-7-(2-(4-(4-cyano-2-fluorophenyl)piperazin-1-yl)ethyl)-9-methyl-2-(pyridin-2-yl)-7H-pyrrolo[3,2-e][1,2,4]triazolo[1,5-c]pyrimidine-8-carboxamide] | ≤ 20 | b (greater than 100 but less than or equal to 1000)
Nc1nc2c(ncn2CCN2CCc3ncc(C4COC4)cc3C2)c2nc(-c3ccccn3)nn12 [3-(2-(3-(oxetan-3-yl)-7,8-dihydro-1,6-naphthyridin-6(5H)-yl)ethyl)-8-(pyridin-2-yl)-3H-[1,2,4]triazolo[5,1-i]purin-5-amine] | 20 to 100 | c (greater than 0 but less than or equal to 100)
2-(4-(4-(2-(5-amino-8-(methoxycarbonyl)-9-methyl-2-(pyridin-2-yl)-7H-pyrrolo[3,2-e][1,2,4]triazolo[1,5-c]pyrimidin-7-yl)ethyl)piperazin-1-yl)phenoxy)acetic acid | ≤ 20 | b (greater than 100 but less than or equal to 1000)
CC#Cc1nc2c3ncn(CCN4CCc5ncc(C6COC6)cc5C4)c3nc(N)n2n1 | 20 to 100 | b (greater than 100 but less than or equal to 1000)
Nc1nc2c(c(Cl)c(C(=O)O)n2CCN2CCN(c3ncccn3)CC2)c2nc(-c3ccccn3)nn12 [5-amino-9-chloro-2-(pyridin-2-yl)-7-(2-(4-(pyrimidin-2-yl)piperazin-1-yl)ethyl)-7H-pyrrolo[3,2-e][1,2,4]triazolo[1,5-c]pyrimidine-8-carboxylic acid] | 20 to 100 | c (greater than 0 but less than or equal to 100)
Cc1c(C(=O)O)n(CCN2CCCN(c3cc(-c4ncco4)ccc3F)CC2)c2nc(N)n3nc(-c4ccccn4)nc3c12 [5-amino-7-(2-(4-(2-fluoro-5-(oxazol-2-yl)phenyl)-1,4-diazepan-1-yl)ethyl)-9-methyl-2-(pyridin-2-yl)-7H-pyrrolo[3,2-e][1,2,4]triazolo[1,5-c]pyrimidine-8-carboxylic acid] | 20 to 100 | c (greater than 0 but less than or equal to 100)
Cc1cnc2c(c1)CN(CCn1c(C(N)=O)c(Cl)c3c1nc(N)n1nc(-c4ccccn4)nc31)CC2 [5-amino-9-chloro-7-(2-(3-methyl-7,8-dihydro-1,6-naphthyridin-6(5H)-yl)ethyl)-2-(pyridin-2-yl)-7H-pyrrolo[3,2-e][1,2,4]triazolo[1,5-c]pyrimidine-8-carboxamide] | ≤ 20 | c (greater than 0 but less than or equal to 100)
Nc1nc2c(ncn2CCN2CCN(c3cc(-c4ncco4)ccc3F)CC2)c2nc(C#CC3CC3)nn12 [8-(cyclopropylethynyl)-3-(2-(4-(2-fluoro-5-(oxazol-2-yl)phenyl)piperazin-1-yl)ethyl)-3H-[1,2,4]triazolo[5,1-i]purin-5-amine] | ≤ 20 | b (greater than 100 but less than or equal to 1000)
Cc1c(C(=O)O)n(CCN2CCN(c3ccc(F)cc3F)CC2)c2nc(N)n3nc(-c4ccccn4)nc3c12 [5-amino-7-(2-(4-(2,4-difluorophenyl)piperazin-1-yl)ethyl)-9-methyl-2-(pyridin-2-yl)-7H-pyrrolo[3,2-e][1,2,4]triazolo[1,5-c]pyrimidine-8-carboxylic acid] | ≤ 20 | b (greater than 100 but less than or equal to 1000)
CC#Cc1nc2c3ncn(CCN4CCN(c5cc6c(C)noc6cc5F)CC4)c3nc(N)n2n1 [3-(2-(4-(6-fluoro-3-methylbenzo[d]isoxazol-5-yl)piperazin-1-yl)ethyl)-8-(prop-1-yn-1-yl)-3H-[1,2,4]triazolo[5,1-i]purin-5-amine] | ≤ 20 | a (greater than 1000)
Nc1nc2c(c(Cl)c(C(=O)O)n2CCN2CCN(c3ccncc3)CC2)c2nc(-c3ccccn3)nn12 [5-amino-9-chloro-2-(pyridin-2-yl)-7-(2-(4-(pyridin-4-yl)piperazin-1-yl)ethyl)-7H-pyrrolo[3,2-e][1,2,4]triazolo[1,5-c]pyrimidine-8-carboxylic acid] | 20 to 100 | b (greater than 100 but less than or equal to 1000)
Cc1c(C(N)=O)n(CCN2CCN(c3ccc(F)cc3F)CC2)c2nc(N)n3nc(-c4ccccn4)nc3c12 [5-amino-7-(2-(4-(2,4-difluorophenyl)piperazin-1-yl)ethyl)-9-methyl-2-(pyridin-2-yl)-7H-pyrrolo[3,2-e][1,2,4]triazolo[1,5-c]pyrimidine-8-carboxamide] | ≤ 20 | b (greater than 100 but less than or equal to 1000)

Source: patent US20230024108A1, “ADENOSINE A2A RECEPTOR ANTAGONISTS” (Teon Therapeutics, Inc., priority 2019, published 2023)
